In patent US6762200B2, “Oxa(thia)zolidine derivative and anti-inflammatory drug” (Nippon Soda Co. Ltd., priority 2000, dated 2004):
Like-named read-outs stand apart in the source and are kept apart here.

Tests used:
IV-cPLA(2) = molecular target: T1, IV-cPLA(2) (Homo sapiens, UniProt P47712); assay: PLA(2) activity, hydrolysis of bis-BODIPY FL C11-PC in activated U937 cells; format: cell-based
T1 sequence (P47712 1-749): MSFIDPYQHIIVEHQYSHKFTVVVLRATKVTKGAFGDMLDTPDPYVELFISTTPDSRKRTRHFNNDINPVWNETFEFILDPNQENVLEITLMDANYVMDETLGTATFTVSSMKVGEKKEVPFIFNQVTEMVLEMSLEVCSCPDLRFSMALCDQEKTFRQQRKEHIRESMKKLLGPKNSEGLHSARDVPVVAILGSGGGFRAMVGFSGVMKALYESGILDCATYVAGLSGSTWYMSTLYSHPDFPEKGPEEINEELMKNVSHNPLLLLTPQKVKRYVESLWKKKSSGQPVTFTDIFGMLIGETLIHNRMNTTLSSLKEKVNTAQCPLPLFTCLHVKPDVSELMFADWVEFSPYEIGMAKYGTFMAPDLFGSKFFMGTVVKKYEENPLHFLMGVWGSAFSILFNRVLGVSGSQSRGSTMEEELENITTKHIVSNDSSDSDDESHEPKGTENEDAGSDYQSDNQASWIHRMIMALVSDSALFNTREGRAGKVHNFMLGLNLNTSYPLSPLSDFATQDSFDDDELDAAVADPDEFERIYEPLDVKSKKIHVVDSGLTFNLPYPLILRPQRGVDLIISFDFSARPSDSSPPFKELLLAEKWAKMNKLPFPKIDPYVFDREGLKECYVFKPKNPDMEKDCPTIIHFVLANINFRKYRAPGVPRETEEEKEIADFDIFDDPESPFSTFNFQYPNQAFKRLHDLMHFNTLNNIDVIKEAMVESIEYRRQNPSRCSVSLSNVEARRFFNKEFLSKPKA
Description: The PLA(2) activity was measured by quantitatively analyzing the fluorescent product of hydrolysis from 1,2-bis-(4,4-difluoro-5,7-dimethyl-4-bora-3a,4a-diaza-s-indecene-3-undecanoyl)-sn-glycero-3-phosphocholine (hereinafter referred to bis-BODIPY®FL C11—PC, Molecular Probes, Inc., B-7701) using activated U937 cells (human monoblastic lymphoma cell line) by inflammatory stimulus (Meshulam, T. et al., The journal of Biological Chemistry 267 (30): 21465-21470 (1992); and Solito, E. et al., British Journal of Pharmacology 124: 1675-1683 (1998).). The substrate bis-BODIPY®FL C11—PC is incorporated into cellular membranes, the proximity of the BODIPY FL fluorophores on adjacent phospholipid acyl chains causes fluorescence self-quenching. Separation of the fluorophores upon hydrolytic cleavage of one of the acyl chains by PLA(1) or the PLA(2) results in increased fluorescence. In the activated U937 by inflammatory stimulus, it is shown that this substrate should be cleaved enzymatically by IV-cPLA(2) from the feature of its behaviors including sensitivity profiles against the inhibitors.
The human cell line U937 was purchased from Dai-Nippon Pharmaceuticals Co., Ltd. The cells were maintained by transferring every 3-4 days into RPMI 1640 medium (Sigma Chemical Co., R6504) supplemented with heat-inactivated 10% fetal bovine serum (Fetal Bovine Serum, Sigma Chemical Co., F 4135) in a 5% CO2 humidified atmosphere at 37° C. The cells were transferred into the culture medium described above, containing 1.2% (v/v) dimethylsulfoxide (hereinafter referred to as […], Nacalai tesque Co., Ltd., D 134-45), and pre-cultured for 96 to 120 hours so as to differentiate into the macrophage-like cells to be provided for the assay. The macrophage-like cells were collected and washed by centrifugation with the Assay medium (Dulbecco's phosphate buffered saline (hereinafter referred to as PBS)-2.2 mM glucose-2.5 μm albumin). Then, Phorbol 12-Myristate 13-Acetate (hereinafter referred to as TPA, Sigma Chemical Co., P 8139) was added to the Assay medium to be 1×10^−8M as the final concentration. Then, the macrophage-like cells were further cultured for an hour to be activated (Rzigalinski, B. A. & Rosenthal, M. D., Biochimica et Biophysica Acta 1223: 219-225 (1994); and Gonchar, M. V. et al., Biochemical and Biophysical Research Communication, 249: 829-832 (1998).).
For preparing substrate liposome suspension, bis-BODIPY®FL C11—PC was combined with phosphatidylcholine (Sigma Chemical Co., P 7769) at 1:9 molar ratio in chloroform, and dried under nitrogen flow. The dried mixture was suspended with the Assay medium at 100 μg/mL, voltexed and sonicated for an hour on ice under dark condition.
The test compound was dissolved with DMSO at 30 mM, and the solution diluted with either DMSO or the Assay medium before addition into the reaction mixture. The DMSO concentration in the reaction mixture was controlled so as to be no more than 0.1%. The 30-fold concentration of test compound solution was put into each well of MICRPTEST™ Tissue Culture Plate, 96 Well (Falcon, 3072) at a rate of 2.5 μL/well. To the respective well was added 25 μL/well of the activated U937 cell suspension ([…]), and the cells were pre-cultured for 120 min. at 37° C. in a 5% CO2 atmosphere incubator. 47.5 μL/well of the substrate liposome suspension with 1.5×10^−6M A23187 (Sigma Chemical Co., C 7522) was added into each well to prepare 75 μL/well of the total reaction mixture, followed by culture for 30 min. under the same conditions with shielding against light. 100 μL/well of 0.1% GEDTA (Dojindo Laboratories Co. Ltd., 348-01311) methanol solution was added into each well and mixed to stop the reaction. […]

TPA-induced ear edema = format: in vivo, ICR-strain male mouse; settings: topical, 6 hours after TPA
Description: This test was carried out referring to the method of Carlson, R. P. et al. (Agents and Actions, 17(2): 197-204 (1985).) and the method of Chang, J. (European Journal of Pharmacology, 142: 197-205 (1987).). […] 6 hours later, the thickness of each ear at the particular part was respectively measured three times using a digimatic micrometer to calculate the mean value. Ear edema was determined by subtracting the mean thickness of the left ear as without treatment from that of the right ear as TPA-applied. […] As the positive control, 100 mg/kg of Hydrocortisone (Sigma Chemical Co., H 4001) suspension was applied to the mouse similarly as for the compound of the present invention.

Structure (SMILES) | Inhibition (%) (IV-cPLA(2); 0.1 μM) | further results
CC1C(c2cccnc2)SC(=O)N1C(=O)NC1CCCCC1 (centres unmarked) [Compound 2-145] | 72 | 
CC1C(c2ccc(-c3ccccc3)cc2)OC(=O)N1C(=O)Nc1ccc(Cl)cc1 (centres unmarked) [Compound 2-187] | 74 | 
CC1C(c2cnc3ccccc3c2)OC(=O)N1C(=O)NC1CCCCO1 (centres unmarked) [Compound 2-151] |  | Inhibition (%) (IV-cPLA(2); 0.01 μM): 64%
CC1C(c2ccc(-c3ccccc3)cc2)OC(=O)N1C(=S)NC1CCCCC1 (centres unmarked) [Compound 2-75] | 83 | 
CC1C(c2ccc(Cl)cc2)SC(=O)N1C(=O)Nc1ccncc1 (centres unmarked) [Compound 2-21] |  | Inhibition (%) (IV-cPLA(2); 1 μM): 100%
CC1C(c2ccc3ccccc3c2)OC(=O)N1C(=O)NC1CCCCO1 (centres unmarked) [Compound 2-115] | 63 | 
CC1C(c2ccc3c(c2)CCC3)OC(=O)N1C(=O)NC1CCCCO1 (centres unmarked) [Compound 2-127] |  | Inhibition (%) (IV-cPLA(2); 0.01 μM): 54%; Ear Edema Inhibition (%) (TPA-induced ear edema; 1 mg/40 μL/ear × 2): 81%
COS(=O)(=O)NC(=O)N1C(=O)OC(c2ccc(C)cc2)C1C (centres unmarked) [Compound 2-56] | 92 | 
CC1C(c2ccccn2)OC(=O)N1C(=O)Nc1ccc(Cl)cc1 (centres unmarked) [Compound 2-146] | 85 | Ear Edema Inhibition (%) (TPA-induced ear edema; 1 mg/40 μL/ear × 2): 80%
CC1C(c2cccc3ccccc23)OC(=O)N1C(=O)NC1CCCCO1 (centres unmarked) [Compound 2-113] |  | Inhibition (%) (IV-cPLA(2); 1 μM): 72%
CC1C(c2ccccc2)OC(=O)N1C(=S)NC1CCCCC1 (centres unmarked) [Compound 2-180] | 100 | 
CCNC(=O)N1C(=NNc2ccccc2)SC(c2ccc(Cl)cc2)C1C (centres unmarked) [Compound 1-77] |  | Inhibition (%) (IV-cPLA(2); 1 μM): 100%
CCONC(=O)N1C(=O)OC(c2ccc(Oc3ccccc3)cc2)C1C (centres unmarked) [Compound 2-116] | 54 | 
CC1C(c2ccc(Cl)cc2)SC(=O)N1C(=O)NN(C)C (centres unmarked) [Compound 2-22] | 100 | 
Cc1ccc(C2SC(=NC(=S)NC3CCCCC3)NC2C)cc1 (centres unmarked) [Compound 1-112] |  | Inhibition (%) (IV-cPLA(2); 1 μM): 72%; Ear Edema Inhibition (%) (TPA-induced ear edema; 1 mg/40 μL/ear × 2): 69%
Cc1ccc(C2OC(=NC(=O)c3c(C)cccc3Cl)NC2C)cc1 (centres unmarked) [Compound 1-73] | 68 | Ear Edema Inhibition (%) (TPA-induced ear edema; 1 mg/40 μL/ear × 2): 86%
Cc1ccc(C2OC(=O)N(C(=O)NC3CCSCC3)C2C)cc1 (centres unmarked) [Compound 2-157] | 96 | 
Cc1ccc(C2OC(=O)N(C(=O)NC3CCCCO3)C2C)cc1C (centres unmarked) [Compound 2-156] | 88 | Ear Edema Inhibition (%) (TPA-induced ear edema; 1 mg/20 μL/ear × 2): 48%
CC(C)N=C1OC(c2ccc(Cl)cc2)C(C)N1C(=O)NC1CCCCC1 (centres unmarked) [Compound 1-28] | 93 | Ear Edema Inhibition (%) (TPA-induced ear edema; 1 mg/20 μL/ear × 2): 36%
CC1C(c2ccc(Cl)cc2)SC(=O)N1C(=O)NC(=O)c1ccccc1 (centres unmarked) [Compound 2-38] |  | Inhibition (%) (IV-cPLA(2); 1 μM): 87%
CCN(CC)S(=O)(=O)NC(=O)N1C(=O)OC(c2ccc(C)cc2)C1C (centres unmarked) [Compound 2-55] | 94 | Ear Edema Inhibition (%) (TPA-induced ear edema; 1 mg/40 μL/ear × 2): 54%
CC(=O)OCC(=O)[C@@]1(O)[C@H](C)C[C@H]2[C@@H]3CCC4=CC(=O)C=C[C@]4(C)[C@@]3(F)[C@@H](O)C[C@@]21C [DEX-Ac, Dexamathasone-21-acetate, reference compound] |  | Ear Edema Inhibition (%) (TPA-induced ear edema; 0.3 mg/20 μL/ear × 2): 49%; Ear Edema Inhibition (%) (TPA-induced ear edema; 1 mg/20 μL/ear × 2): 80%

Structure (SMILES) | Inhibition (%) (IV-cPLA(2); 0.1 μM) | further results
CC1C(c2ccc(Oc3ccccc3)cc2)OC(=O)N1C(=O)NC1CCCO1 (centres unmarked) [Compound 2-128] |  | Inhibition (%) (IV-cPLA(2); 1 μM): 81%; Ear Edema Inhibition (%) (TPA-induced ear edema; 1 mg/40 μL/ear × 2): 49%
Cc1ccc(C2OC(=O)N(C(=S)NC3CCCCC3)C2C)cc1C (centres unmarked) [Compound 2-182] | 91 | 
CN=C1OC(c2ccc(C)cc2)C(C)N1C(=O)Nc1ccc(Cl)cc1 (centres unmarked) [Compound 1-25] | 100 | 
CC1C(c2ccc(Cc3ccccc3)cc2)OC(=O)N1C(=O)NC1CCCCO1 (centres unmarked) [Compound 2-117] | 82 | 
CC(=O)N=C1SC(c2ccccc2)C(C)N1CC(OC(C)=O)c1ccccc1 (centres unmarked) [Compound 1-42] | 94 | 
CC1C(c2ccc(-c3ccccc3)cc2)OC(=O)N1C(=O)Nc1ccc(Cl)cc1 (centres unmarked) [Compound 2-186] | 75 | 
CC1C(c2ccc(Cl)cc2)SC(=O)N1C(=O)NC1CCCCO1 (centres unmarked) [Compound 2-201] |  | Inhibition (%) (IV-cPLA(2); 1 μM): 94%
CC1C(c2ccc(Cl)cc2)SC(=O)N1C(=S)NCCN1CCOCC1 (centres unmarked) [Compound 2-37] | 63 | 
Cc1ccc(C2OC(=O)N(C(=O)NC3CCOCC3)C2C)cc1 (centres unmarked) [Compound 2-159] | 95 | 
CC1C(c2ccc(Cl)cc2)SC(=NC#N)N1Cc1ccc(Cl)nc1 (centres unmarked) [Compound 1-5] | 66 | 
Cc1ccc(C2OC(=O)N(C(=O)NC(=O)c3c(F)cccc3F)C2C)cc1 (centres unmarked) [Compound 2-79] | 55 | 
Cc1ccc(C2OC(=O)N(C(=O)NN3CCN(C)CC3)C2C)cc1 (centres unmarked) [Compound 2-161] |  | Inhibition (%) (IV-cPLA(2); 1 μM): 65%
CC1C(c2ccccc2)OC(=O)N1C(=O)NC1CCCCO1 (centres unmarked) [Compound 2-155] | 95 | 
CCN(C(C)C)S(=O)(=O)NC(=O)N1C(=O)OC(c2ccc3ccccc3c2)C1C (centres unmarked) [Compound 2-126] | 72 | 
Cc1ccc(N2C(=NC(=O)NC3CCCCC3)SC(c3ccc(Cl)cc3)C2C)cc1 (centres unmarked) [Compound 1-90] |  | Ear Edema Inhibition (%) (TPA-induced ear edema; 1 mg/20 μL/ear × 2): 41%
CCOC(=O)CN=C1NC(C)C(c2ccc(C)cc2)S1 (centres unmarked) [Compound 1-35] | 57 | 
O=C(NC1CCCCO1)N1CC(c2ccc(-c3ccccc3)cc2)OC1=O (centres unmarked) [Compound 2-78] |  | Inhibition (%) (IV-cPLA(2); 0.01 μM): 100%
Cc1ccc(C2OC(=O)N(C(=O)NCCCl)C2C)cc1 (centres unmarked) [Compound 2-48] | 77 | 
COC1CCCC(NC(=O)N2C(=O)OC(c3ccc4ccccc4c3)C2C)O1 (centres unmarked) [Compound 2-133] |  | Inhibition (%) (IV-cPLA(2); 1 μM): 75%
CC1NC(=N[N+](=O)[O-])SC1c1ccc(Cl)cc1 (centres unmarked) [Compound 1-11] | 88 | 
O=C(NC1CCCCO1)N1CC(c2ccc3ccccc3c2)OC1=O (centres unmarked) [Compound 2-130] | 68 | 
C=CC(=O)N=C1SC(c2ccc(C)cc2)C(C)N1C(=O)NC1CCCCC1 (centres unmarked) [Compound 1-49] | 91 | 
